Measured values reported in patent publication US20040110954A1, “Methods of synthesizing phenol-contining compounds” (priority 2003, published 2004).
Where two headings read alike, the source gives them in different places.

Columns and labels:
[1] = Glucuronidation in rat hepatic microsomes with UDPGA; details: rat hepatic microsomes ca. 0.5 mg/mL protein, 0.5 uM compound, UDPGA 4 mM, pH 7.4, 37° C.
Method: (§1) The standard procedure for these experiments is as follows: incubations were performed in a final volume of 1.0 mL in a heated block at approximately 37° C. Each incubation contained approximately 0.5 mg/mL microsomal protein and 0.5 uM of the compound. The incubations were conducted with 50 mM potassium phosphate buffer (pH 7.4) and, following a 5 min preincubation at 37° C., were initiated by the addition of cofactor (UDPGA, 4 mM). Aliquots were removed every three minutes and were quenched with two volumes of ACN/EtOH/Acetic acid (80:20:1) containing an appropriate internal standard. Samples were store frozen (ca.−70° C.) until analysis for the quantitation of the parent compound by LC/MS methods. The rate of disappearance of each compound was determined from relative concentration versus time profiles fitted to appropriate exponential decay equations. CLint (mL/min/g liver) was calculated using standard scaling factors.

[2] = Glucuronidation in human hepatic microsomes with UDPGA; details: human hepatic microsomes ca. 0.5 mg/mL protein, 0.5 uM compound, UDPGA 4 mM, pH 7.4, 37° C.
Method: as §1

[3] = In vivo half-life and clearance in the rat; details: male Sprague-Dawley rats; crossover: 60 min iv infusion, then oral gavage; plasma, noncompartmental analysis
Method: Method for Determining the in vivo Half-life (T½) of Compounds in Table 3. The study was conducted using a crossover design on two separate study days. Three male Sprague-Dawley rats received surgically implanted catheters in the vena cava (via the femoral vein), and in the femoral artery at least three days prior to the study. […] On study day two, the animals (fasted) received the compound by oral gavage (16.0 mL/kg). […] Blood samples were collected prior to dosing and at various times following administration of compounds. Plasma concentrations of the compounds were quantified by an HPLC/MS/MS method (LLQ=10 ng/mL). Noncompartmental analysis was used for pharmacokinetic analysis of plasma concentration versus time data.

[4] = microsomes, pH 7.4
Method: as §1

[5] = microsomes, pH 7.4; remark: listed apart in the source
Method: as §1

Row | Compound | Clint (mL/min/g liver) rat ([1]; Table 1 diphenylureas) [mL/min/g liver] | CLint (mL/min/g liver) human ([2]; Table 1 diphenylureas) [mL/min/g liver] | further results
1 | COCCNS(=O)(=O)c1c(Cl)ccc(NC(=O)Nc2cccc(Cl)c2Cl)c1O [Table 1 Entry 7, N-[4-chloro-2-hydroxy-3-[N″-(2-methoxyethyl)sufonyl]phenyl]-N′-(2,3-dichlorophenyl) urea] | <0.6 | <0.6 | 
2 | CNS(=O)(=O)c1c(Cl)ccc(NC(=O)Nc2cccc(Cl)c2Cl)c1O [Table 1 Entry 5, N-[4-chloro-2-hydroxy-3-(N″-methylaminosulfonyl)phenyl]-N′-(2,3-dichlorophenyl) urea] | <0.6 | <0.6 | Cl [3]: 26 mL/min/kg; T½ [3]: 5.4 min; Clint (mL/min/g liver) rat ([1]; Table 2 squaramide series): 6.7 mL/min/g liver; CLint (mL/min/g liver) human ([2]; Table 2 squaramide series): >50 mL/min/g liver
3 | N#Cc1ccc(NC(=O)Nc2ccccc2Br)c(O)c1Br [Table 1 Entry 14, 1-(3-Bromo-4-cyano-2-hydroxy-phenyl)-3-(2-bromo-phenyl)-urea] |  |  | Clint (mL/min/g liver) rat [4]: 27 mL/min/g liver; CLint (mL/min/g liver) human [5]: 3.7 mL/min/g liver
4 | CNS(=O)(=O)c1c(Cl)ccc(NC(=O)Nc2ccccc2Br)c1O [Table 1 Entry 6, N′-(2-bromophenyl)-N′-[4-chloro-2-hydroxy-3-(N″-methylaminosulfonyl)phenyl] urea] |  |  | Clint (mL/min/g liver) rat [4]: <0.6 mL/min/g liver; CLint (mL/min/g liver) human [5]: <0.6 mL/min/g liver
5 | N-(4-chloro-2-hydroxy-3-aminosulfonylphenyl)-N′-(2,3-dichlorophenyl) urea sodium salt [Example 1] | <0.6 | <0.6 | Cl [3]: 4.6 mL/min/kg; T½ [3]: 636 min; Clint (mL/min/g liver) rat ([1]; Table 2 squaramide series): <0.6 mL/min/g liver; CLint (mL/min/g liver) human ([2]; Table 2 squaramide series): <0.6 mL/min/g liver
6 | CN(C)S(=O)(=O)c1c(Cl)ccc(NC(=O)Nc2ccccc2Br)c1O [Table 1 Entry 4, N-(2-Bromophenyl)-N′[4-chloro-3-(N″,N″-dimethylaminosulfonyl)-2-hydroxyphenyl] urea] | <0.6 | <0.6 | Cl [3]: 72 mL/min/kg; Clint (mL/min/g liver) rat ([1]; Table 2 squaramide series): 5.1 mL/min/g liver; CLint (mL/min/g liver) human ([2]; Table 2 squaramide series): 28 mL/min/g liver
7 | CN(C)S(=O)(=O)c1c(Cl)ccc(NC(=O)Nc2cccc(Cl)c2Cl)c1O [Table 1 Entry 3, N-[4-Chloro-3-(N″,N″-dimethylaminosulfonyl)-2-hydroxyphenyl]-N′-(2,3-dichlorophenyl) urea] | <0.6 | <0.6 | Cl [3]: 65 mL/min/kg; T½ [3]: 11.4 min; Clint (mL/min/g liver) rat ([1]; Table 2 squaramide series): 12 mL/min/g liver; CLint (mL/min/g liver) human ([2]; Table 2 squaramide series): 16 mL/min/g liver

Second part, led by results:

Row | Clint (mL/min/g liver) rat ([1]; Table 1 diphenylureas) [mL/min/g liver] | CLint (mL/min/g liver) human ([2]; Table 1 diphenylureas) [mL/min/g liver] | Compound | further results
8 | 24 | 21 | O=C(Nc1ccc(Cl)c(C(=O)N2CCOCC2)c1O)Nc1cccc(Cl)c1Cl [Table 1 Entry 19, 1-[4-Chloro-2-hydroxy-3-(1-morpholin-4-yl-methanoyl)-phenyl]-3-(2,3-dichloro-phenyl)-urea] | 
9 |  | 2.4 | CCCC(C)c1c(C#N)ccc(NC(=O)Nc2ccccc2Br)c1O (stereo not shown) [Table 1 Entry 12, 1-(2-Bromo-phenyl)-3-[4-cyano-2-hydroxy-3-(1-methyl-butyl)-phenyl]-urea] | 
10 | 2.6 | 4.1 | C[S+]([O-])c1c(Cl)ccc(NC(=O)Nc2cccc(Cl)c2Cl)c1O (stereo not shown) [Table 1 Entry 15, 1-(4-Chloro-2-hydroxy-3-methanesulfinyl-phenyl)-3-(2,3-dichloro-phenyl)-urea] | 
11 |  | 11.3 | CCCc1c(C#N)ccc(NC(=O)Nc2ccccc2Br)c1O [Table 1 Entry 10, 1-(2-Bromo-phenyl)-3-(4-cyano-2-hydroxy-3-propyl-phenyl)-urea] | melting point: 174 to 175 °C
12 | <0.6 | <0.6 | CS(=O)(=O)c1c(C#N)ccc(NC(=O)Nc2ccccc2Br)c1O [Table 1 Entry 9, 1-(2-Bromo-phenyl)-3-(4-cyano-2-hydroxy-3-methanesulfonyl-phenyl)-urea] | 
13 | 5.2 | 15.4 | NC(=O)c1c(Cl)ccc(NC(=O)Nc2ccccc2Br)c1O [Table 1 Entry 17, 3-[3-(2-Bromo-phenyl)-ureido]-6-chloro-2-hydroxy-benzamide] | 
14 | <0.6 | <0.6 | CS(=O)(=O)c1c(Cl)ccc(NC(=O)Nc2cccc(Cl)c2Cl)c1O [Table 1 Entry 8, 1-(4Chloro-2-hydroxy-3-methanesulfonyl-phenyl)-3-(2,3-dichloro-phenyl)-urea] | 
15 | 9.3 | 11 | O=C(Nc1ccc(Cl)c(C(=O)Nc2ccccc2)c1O)Nc1cccc(Cl)c1Cl [Table 1 Entry 18, 6-Chloro-3-[3-(2,3-dichloro-phenyl)-ureido]-2-hydroxy-N-phenyl-benzamide] | melting point: 244 to 245 °C
16 |  | 2.8 | CCC(C)c1c(C#N)ccc(NC(=O)Nc2ccccc2Br)c1O (stereo not shown) [Table 1 Entry 11, 1-(2-Bromo-phenyl)-3-[4-cyano-2-hydroxy-3-(1-methyl-propyl)-phenyl]-urea] | 
17 |  | 7.6 | CC(C)Cc1c(C#N)ccc(NC(=O)Nc2ccccc2Br)c1O [Table 1 Entry 13, 1-(2-Bromo-phenyl)-3-(4-cyano-2-hydroxy-3-isobutyl-phenyl)-urea] | 
18 | 1.3 | 11 | NS(=O)(=O)Cc1c(Cl)ccc(NC(=O)Nc2cccc(Cl)c2Cl)c1O [Table 1 Entry 16, {6-Chloro-3-[3-(2,3-dichloro-phenyl)-ureido]-2-hydroxy-phenyl}-methanesulfonamide] | 
